From patent US20100286181A1, “PYRROLE DERIVATIVES WITH ANTIBACTERIAL ACTIVITY” (ASTRAZENECA AB, priority 2006, published 2010)

These molecules were tested against GyrB ATPase activity (E. coli GyrA, E. coli GyrB) (Escherichia coli, UniProt P0AES6) (assay: GyrB ATPase inhibition activity assay (ammonium molybdate/malachite green phosphate detection)). Conditions: figure quoted may be an average of two or more results.
Assay type: biochemical
Description: Compounds may be tested for inhibition of GyrB ATPase activity using an ammonium molybdate/malachite green-based phosphate detection assay (Lanzetta, P. A., L. J. Alvarez, P. S. Reinach, and O. A. Candia, 1979, 100: 95-97). Assays can be performed in multiwell plates in 100 μl reactions containing: 50 mM HEPES buffer pH 7.5, 75 mM ammonium acetate, 5.5 mM magnesium chloride, 0.5 mM ethylenediaminetetraacetic acid, 5% glycerol, 1 mM 1,4-Dithio-DL-threitol, 200 nM bovine serum albumin, 5 μg/ml sheared salmon sperm DNA, 2.5 nM E. coli GyrA, 2.5 nM E. coli GyrB, 250 μM ATP, and compound in dimethylsulfoxide. Reactions can be quenched with 150 μl of ammonium molybdate/malachite green detection reagent containing 1.2 mM malachite green hydrochloride, 8.5 mM ammonium molybdate tetrahydrate, and 1 M hydrochloric acid.
Compounds of the Examples could be expected to have IC50 values of <200 μg/ml in one or both assays described herein above. For Example the following results were obtained in a GyrB ATPase inhibition activity assay substantially similar to the above wherein the figure quoted may be an average of two or more results
In the case of `Cc1[nH]c(C(=O)N[C@@H]2CCN(c3ncc(C(=O)O)s3)C[C@@H]2n2ccnn2)c(Cl)c1Cl` [Example 101, 2-[(3S,4R)-4-{[(3,4-Dichloro-5-methyl-1H-pyrrol-2-yl)carbonyl]amino}-3-(1H-1,2,3-triazol-1-yl)piperidin-1-yl]-1,3-thiazole-5-carboxylic acid], the IC50 is reported as under 9.77 nM.
In the case of `CONC(=O)c1cccc2nc(N3CC[C@@H](NC(=O)c4[nH]c(C)c(Cl)c4Cl)[C@@H](n4ccnn4)C3)sc12` [Example 125, 2-[(3S,4R)-4-{[(3,4-Dichloro-5-methyl-1H-pyrrol-2-yl)carbonyl]amino}-3-(1H-1,2,3-triazol-1-yl)piperidin-1-yl]-N-methoxy-1,3-benzothiazole-7-carboxamide], the IC50 is reported as under 9.77 nM.
Molecule `COC(=O)c1cnc(N2CC[C@H](NC(=O)c3[nH]c(C)c(Cl)c3Cl)[C@H](n3ccnn3)C2)s1` (racemic) [Example 126, cis(±)Methyl 2-[4-{[(3,4-dichloro-5-methyl-1H-pyrrol-2-yl)carbonyl]amino}-3-(1H-1,2,3-triazol-1-yl)piperidin-1-yl]-1,3-thiazole-5-carboxylate] has an IC50 of 32.7 nM.
Work on `COC[C@H](C)NC(=O)c1nc(N2CC[C@H](NC(=O)c3[nH]c(C)c(Cl)c3Cl)[C@H](n3cncn3)C2)sc1C(=O)O` (racemic) [Example 50, cis(±)2-[4-{[(3,4-Dichloro-5-methyl-1H-pyrrol-2-yl)carbonyl]amino}-3-(1H-1,2,4-triazol-1-yl)piperidin-1-yl]-4-({[(1S)-2-methoxy-1-methylethyl]amino}carbonyl)-1,3-thiazole-5-carboxylic acid] yielded an IC50 of under 9.77 nM.
Work on `CCOC(=O)c1sc(N2CCC(NC(=O)c3[nH]c(C)c(Cl)c3Cl)/C(=N/OC)C2)nc1C(=O)NCCOC` (stereo not drawn) [Example 33, Ethyl 2-[(3E)-4-{[(3,4-dichloro-5-methyl-1H-pyrrol-2-yl)carbonyl]amino}-3-(methoxyimino)piperidin-1-yl]-4-{[(2-methoxyethyl)amino]carbonyl}-1,3-thiazole-5-carboxylate] yielded an IC50 of 36.9 nM.
For `COCCn1ccnc1-c1nc(N2CCC(NC(=O)c3[nH]c(C)c(Cl)c3Cl)/C(=N/OC)C2)sc1C(=O)O` (stereo not drawn) [Example 27, 2-[(3E)-4-{[(3,4-Dichloro-5-methyl-1H-pyrrol-2-yl)carbonyl]amino}-3-(methoxyimino)piperidin-1-yl]-4-[1-(2-methoxyethyl)-1H-imidazol-2-yl]-1,3-thiazole-5-carboxylic acid], the IC50 was under 63.5 nM.
`CC(=O)c1nc(N2CCC(NC(=O)c3[nH]c(C)c(Cl)c3Cl)C3(C2)OCCCO3)sc1C(=O)O` (stereo not drawn) [Example 19, 4-Acetyl-2-(11-{[(3,4-dichloro-5-methyl-1H-pyrrol-2-yl)carbonyl]amino}-1,5-dioxa-8-azaspiro[5.5]undec-8-yl)-1,3-thiazole-5-carboxylic acid] showed an IC50 of under 9.77 nM.
`Cc1[nH]c(C(=O)N[C@H]2CCN(c3nc4cccc(C(=O)O)c4s3)C[C@H]2n2ccnc2)c(Cl)c1Cl` (racemic) [Example 44, cis(±)2-[4-{[(3,4-Dichloro-5-methyl-1H-pyrrol-2-yl)carbonyl]amino}-3-(1H-imidazol-1-yl)piperidin-1-yl]-1,3-benzothiazole-7-carboxylic acid] showed an IC50 of under 9.77 nM.
Work on `CCOC(=O)c1sc(N2CC[C@@H](NC(=O)c3[nH]c(C)c(Cl)c3Cl)[C@@H](n3cc(C#N)nn3)C2)nc1C(=O)NCCOC` [Example 92, Ethyl 2-[(3S,4R)-3-(4-cyano-1H-1,2,3-triazol-1-yl)-4-[(3,4-dichloro-5-methyl-1H-pyrrole-2-carbonyl)amino]-1-piperidinyl]-4-(2-methoxyethylcarbamoyl)-1,3-thiazole-5-carboxylate] yielded an IC50 of under 9.77 nM.
Molecule `CONC(=O)c1cccc2nc(N3CC[C@H](NC(=O)c4[nH]c(C)c(Cl)c4Cl)[C@H](n4ccnc4)C3)sc12` (racemic) [Example 46, cis(±)2-[4-{[(3,4-Dichloro-5-methyl-1H-pyrrol-2-yl)carbonyl]amino}-3-(1H-imidazol-1-yl)piperidin-1-yl]-N-methoxy-1,3-benzothiazole-7-carboxamide] has an IC50 of under 9.77 nM.
Molecule `COC(=O)c1cnc(N2CCC(NC(=O)c3[nH]c(C)c(Cl)c3Cl)C3(C2)OCCCO3)s1` (stereo not drawn) [Example 6, Methyl 2-(11-{[(3,4-dichloro-5-methyl-1H-pyrrol-2-yl)carbonyl]amino}-1,5-dioxa-8-azaspiro[5.5]undec-8-yl)-1,3-thiazole-5-carboxylate] has an IC50 of 79.1 nM.
Molecule `Cc1[nH]c(C(=O)N[C@H]2CCN(c3ncc(C(=O)O)s3)C[C@H]2N)c(Cl)c1Cl` (racemic) [Example 68, cis(±)2-(3-Amino-4-{[(3,4-dichloro-5-methyl-1H-pyrrol-2-yl)carbonyl]amino}piperidin-1-yl)-1,3-thiazole-5-carboxylic acid] has an IC50 of 291 nM.
`COCC(COC)NC(=O)c1nc(N2CC[C@@H](NC(=O)c3[nH]c(C)c(Cl)c3Cl)[C@@H](n3cc(CO)nn3)C2)sc1C(=O)O` [Example 114] showed an IC50 of under 9.77 nM.
`COCCNC(=O)c1nc(N2CC[C@@H](NC(=O)c3[nH]c(C)c(Cl)c3Cl)[C@@H](n3cc(COC)nn3)C2)sc1C(=O)O` [Example 117] gave an IC50 of under 9.77 nM.
Molecule `COC(=O)c1cnc(N2CC[C@H](NC(=O)c3[nH]c(C)c(Cl)c3Cl)[C@H](n3ccnc3)C2)s1` (racemic) [Example 38, cis(±)Methyl 2-[4-{[(3,4-dichloro-5-methyl-1H-pyrrol-2-yl)carbonyl]amino}-3-(1H-imidazol-1-yl)piperidin-1-yl]-1,3-thiazole-5-carboxylate] has an IC50 of 90.9 nM.
`Cc1[nH]c(C(=O)N[C@H]2CCN(c3ncc(C(N)=O)s3)C[C@H]2n2ccnc2)c(Cl)c1Cl` (racemic) [Example 47, cis(±)2-[4-{[(3,4-Dichloro-5-methyl-1H-pyrrol-2-yl)carbonyl]amino}-3-(1H-imidazol-1-yl)piperidin-1-yl]-1,3-thiazole-5-carboxamide] showed an IC50 of 25.7 nM.
Molecule `Cc1[nH]c(C(=O)N[C@@H]2CCN(c3nc(C(=O)NC4CC4)c(C(=O)O)s3)C[C@@H]2n2cc(Cl)nn2)c(Cl)c1Cl` [Example 110] has an IC50 of under 9.77 nM.
Molecule `COCC(COC)NC(=O)c1nc(N2CC[C@@H](NC(=O)c3[nH]c(C)c(Cl)c3Cl)[C@@H](n3ccnn3)C2)sc1C(=O)O` [Example 118] has an IC50 of under 9.77 nM.
`Cc1[nH]c(C(=O)N[C@H]2CCN(c3ncc(C(=O)O)s3)C[C@H]2n2ccnc2)c(Cl)c1Cl` (racemic) [Example 42, cis(±)2-[4-{[(3,4-Dichloro-5-methyl-1H-pyrrol-2-yl)carbonyl]amino}-3-(1H-imidazol-1-yl)piperidin-1-yl]-1,3-thiazole-5-carboxylic acid] was tested, and the IC50 was under 75.6 nM.
`Cc1[nH]c(C(=O)N[C@@H]2CCN(c3nc4cccc(C(N)=O)c4s3)C[C@@H]2n2ccnn2)c(Cl)c1Cl` [Example 82, 2-[(3S,4R)-4-{[(3,4-Dichloro-5-methyl-1H-pyrrol-2-yl)carbonyl]amino}-3-(1H-1,2,3-triazol-1-yl)piperidin-1-yl]-1,3-benzothiazole-7-carboxamide] gave an IC50 of under 9.77 nM.
Molecule `Cc1[nH]c(C(=O)N[C@@H]2CCN(c3nc4cccc(C(=O)O)c4s3)C[C@@H]2n2ccnn2)c(Cl)c1Cl` [Example 124, 2-[(3S,4R)-4-{[(3,4-Dichloro-5-methyl-1H-pyrrol-2-yl)carbonyl]amino}-3-(1H-1,2,3-triazol-1-yl)piperidin-1-yl]-1,3-benzothiazole-7-carboxylic acid] has an IC50 of under 9.77 nM.
